Data on 30 compounds can be found in ChEMBL document CHEMBL5729376, “SSAO inhibitors and use thereof” (2022).

Structures are written as SMILES. Where only a bound is given, the exact number is not on record here.

For experiment [1], the target named is T1, Amine oxidase [flavin-containing] A (Homo sapiens, UniProt P21397).
T1 sequence (P21397 whole entry): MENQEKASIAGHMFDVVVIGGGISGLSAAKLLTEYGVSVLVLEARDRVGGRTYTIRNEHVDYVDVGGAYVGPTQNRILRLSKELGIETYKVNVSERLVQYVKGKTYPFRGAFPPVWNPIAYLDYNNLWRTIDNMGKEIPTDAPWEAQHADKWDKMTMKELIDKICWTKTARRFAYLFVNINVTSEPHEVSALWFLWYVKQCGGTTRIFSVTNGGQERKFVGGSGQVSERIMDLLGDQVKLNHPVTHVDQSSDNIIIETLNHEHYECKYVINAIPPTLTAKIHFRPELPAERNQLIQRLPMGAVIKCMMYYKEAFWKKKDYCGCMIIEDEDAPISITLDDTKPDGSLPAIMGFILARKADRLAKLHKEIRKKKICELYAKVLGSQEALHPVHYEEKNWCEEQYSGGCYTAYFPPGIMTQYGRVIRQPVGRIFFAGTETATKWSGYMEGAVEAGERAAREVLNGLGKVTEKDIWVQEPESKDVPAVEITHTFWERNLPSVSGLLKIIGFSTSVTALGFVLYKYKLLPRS
In words: (§1) SSAO Activity Assay: Amine oxidase activity of recombinant hSSAO, hMAO-A, and hMAO-B isoforms are measured using the MAO-Glo assay kit (Promega, V1402). Ten nL test compounds (with DMSO as vehicle, 0.1% v/v for hSSAO, hMAO-A and hMAO-B) were added into assay plates by Echo, and pre-incubated with 5 μL of enzyme for 30 mins at room temperature before the addition of 5 μL of luminogenic substrate. The substrate concentration is 40 μM for human recombinant SSAO, 40 μM for human recombinant MAO-A, and 4 μM for human recombinant MAO-B. The hSSAO and hMAO-A assays were conducted in the MAO-A reaction buffer in the kit, and the MAO-B assay was conducted in the MAO-B reaction buffer. Oxidation of the substrate was conducted for 1 hr, before the addition of detecting reagent according the manufacture's protocol. The IC50 value of the tested compounds was calculated by fitting the dose response curve using a 4-parameter non-linear regression routine.

The target of experiment [2] is T2, Amine oxidase [flavin-containing] B (Homo sapiens, UniProt P27338).
T2 sequence (P27338 whole entry): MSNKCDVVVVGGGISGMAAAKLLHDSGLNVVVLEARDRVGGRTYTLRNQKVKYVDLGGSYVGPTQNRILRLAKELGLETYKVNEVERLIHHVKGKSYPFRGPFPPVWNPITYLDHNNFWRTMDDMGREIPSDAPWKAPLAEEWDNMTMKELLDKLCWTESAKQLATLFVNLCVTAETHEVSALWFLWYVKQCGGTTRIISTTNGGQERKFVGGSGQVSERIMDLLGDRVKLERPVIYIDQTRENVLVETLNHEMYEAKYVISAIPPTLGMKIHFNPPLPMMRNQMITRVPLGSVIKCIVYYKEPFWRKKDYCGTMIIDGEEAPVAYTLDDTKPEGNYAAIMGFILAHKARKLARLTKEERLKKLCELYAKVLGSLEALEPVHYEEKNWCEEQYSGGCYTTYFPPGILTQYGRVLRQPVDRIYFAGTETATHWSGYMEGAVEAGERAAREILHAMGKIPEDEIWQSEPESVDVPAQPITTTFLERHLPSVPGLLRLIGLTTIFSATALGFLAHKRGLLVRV
The experiment is described as §1.

With `CN(C(=O)C1CC1)C12CCC(CS(=O)(=O)c3ccc(OC/C(=C/F)CN)cc3)(CC1)CC2`, the IC50 in experiment [1] and in experiment [2] was more than 30 µM in each case.
For `C[C@@H](CN1CCC2(CCCC2)C1=O)CS(=O)(=O)c1ccc(OC/C(=C/F)CN)cc1`, the IC50 (usually the midpoint of a concentration-inhibition curve) in experiment [1] was more than 30 µM; in experiment [2] it was less than 10 µM.
In the same order, the values of `C[C@H](CN1CCCCC1=O)CS(=O)(=O)c1ccc(OC/C(=C/F)CN)cc1` are more than 30 µM and more than 30 µM.
Take `CC(C)n1nc(CS(=O)(=O)c2ccc(OC/C(=C/F)CN)cc2)ccc1=O`: the IC50 in experiment [1] is more than 30 µM; in experiment [2], less than 10 µM.
With `NC/C(=C\F)COc1ccc(S(=O)(=O)CC23CCC(C(=O)O)(CC2)CC3)cc1`, the IC50 in experiment [1] and in experiment [2] was more than 30 µM throughout.
Regarding `C[C@@H](CS(=O)(=O)c1ccc(OC/C(=C/F)CN)cc1)N1CCCCC1=O`, the IC50 in experiment [1] is more than 30 µM; in experiment [2], less than 10 µM.
In the case of `CCN(CC(C)CS(=O)(=O)c1ccc(OC/C(=C/F)CN)cc1)C(=O)C(C)C` (stereo not given), the IC50 in experiment [1] and in experiment [2] was more than 30 µM in each case.
For `CC(C)N1CCN(CS(=O)(=O)c2ccc(OC/C(=C/F)CN)cc2)C(=O)C1`, the IC50 in experiment [1] and in experiment [2] was more than 30 µM each time.
Turning to `NC/C(=C\F)COc1ccc(S(=O)(=O)CN2CCCC2=O)cc1`, the IC50 in experiment [1] and in experiment [2] was more than 30 µM each time.
With `NC/C(=C/F)COc1ccc(S(=O)(=O)CC23CCC(NC(=O)C4CC4)(CC2)CC3)cc1`, the figures for the IC50 in experiment [1] and in experiment [2] were more than 30 µM and less than 10 µM, respectively.
In the same order, the values of `NC/C(=C\F)COc1ccc(S(=O)(=O)CC23CCC(N4CCCS4(=O)=O)(CC2)CC3)cc1` are more than 30 µM and more than 30 µM.
Take `CC(C)(CN1CCOCC1)CS(=O)(=O)c1ccc(OC/C(=C/F)CN)cc1`: the IC50 in experiment [1] and in experiment [2] was more than 30 µM each time.
For the compound `C[C@@H](CN1CCCCC1=O)CS(=O)(=O)c1ccc(OC/C(=C/F)CN)cc1`, the IC50 in experiment [1] and in experiment [2] was more than 30 µM in each case.
In the case of `NC/C(=C\F)COc1ccc(S(=O)(=O)Cn2ccccc2=O)cc1`, the values for the IC50 in experiment [1] and in experiment [2] were more than 30 µM and less than 10 µM, respectively.
The like results for `C[C@H](CN1CCOCC1)CS(=O)(=O)c1ccc(OC/C(=C/F)CN)cc1` were, in that order, more than 30 µM and more than 30 µM.
Consider `NC/C(=C\F)COc1ccc(S(=O)(=O)CC2CCCN(C(=O)C3CCCC3)C2)cc1` (stereo not given), for which the results for the IC50 in experiment [1] and in experiment [2] were 10 to 30 µM and more than 30 µM, respectively.
Take `NC/C(=C\F)COc1ccc(S(=O)(=O)CC23CCC(C(=O)N4CCC(F)(F)CC4)(CC2)CC3)cc1`: the IC50 in experiment [1] and in experiment [2] was more than 30 µM throughout.
Regarding `NC/C(=C\F)COc1ccc(S(=O)(=O)Cc2cnc(N3CCCC3)nc2)cc1`, the IC50 is more than 30 µM in experiment [1] and less than 10 µM in experiment [2].
The like results for `N#CC12CCC(CS(=O)(=O)c3ccc(OC/C(=C/F)CN)cc3)(CC1)CC2` were, in that order, more than 30 µM and less than 10 µM.
Regarding `C[C@H](CN1CCCC1=O)CS(=O)(=O)c1ccc(OC/C(=C/F)CN)cc1`, the IC50 in experiment [1] and in experiment [2] was more than 30 µM throughout.
Turning to `CC(C)N(C)C(=O)C(C)(C)CS(=O)(=O)c1ccc(OC/C(=C/F)CN)cc1`, the IC50 in experiment [1] and in experiment [2] was more than 30 µM in each case.
As for `NC/C(=C\F)COc1ccc(S(=O)(=O)CC23CCC(NC(=O)CC(F)(F)F)(CC2)CC3)cc1`, the IC50 in experiment [1] and in experiment [2] was more than 30 µM throughout.
As for `C[C@@H](CN1CCCC1=O)CS(=O)(=O)c1ccc(OC/C(=C/F)CN)cc1`, the IC50 in experiment [1] and in experiment [2] was more than 30 µM throughout.
Turning to `NC/C(=C\F)COc1ccc(S(=O)(=O)CC2(CN3CCCCC3=O)CC2)cc1`, the IC50 in experiment [1] and in experiment [2] was more than 30 µM each time.
As for `C[C@@H](CN1CCOCC1)CS(=O)(=O)c1ccc(OC/C(=C/F)CN)cc1`, the IC50 in experiment [1] and in experiment [2] was more than 30 µM each time.
On to `NC/C(=C\F)COc1ccc(S(=O)(=O)CC23CC(C(=O)NC4CCC4)(C2)C3)cc1`, for which the figures for the IC50 in experiment [1] and in experiment [2] were more than 30 µM and less than 10 µM, respectively.
In the same order, the values of `NC/C(=C\F)COc1ccc(S(=O)(=O)CC23CCC(C(=O)NC4CCC4)(CC2)C3)cc1` are more than 30 µM and less than 10 µM.
The like results for `NC/C(=C\F)COc1ccc(S(=O)(=O)C[C@H]2CC[C@H](NC(=O)C3CC3)CC2)cc1` were, in that order, more than 30 µM and less than 10 µM.
Turning to `C[C@H](CN1CCC2(CCCC2)C1=O)CS(=O)(=O)c1ccc(OC/C(=C/F)CN)cc1`, the results for the IC50 in experiment [1] and in experiment [2] were more than 30 µM and less than 10 µM, respectively.
The like results for `CC(C)n1ccc(CS(=O)(=O)c2ccc(OC/C(=C/F)CN)cc2)cc1=O` were, in that order, more than 30 µM and less than 10 µM.
